According to patent US20240122905A1, “PHARMACEUTICAL COMPOSITION” (MedinCell S.A., priority 2020, published 2024):

Assay: PK1: absolute/subcutaneous bioavailability study of Tacrolimus solution (IV and SC)
Format: in vivo, female Göttingen minipig
Conditions: for AUClast/D1 / AUC∞/D1 / Cmax/D1: dose-normalized by actual dose per kg
Procedure: PK1: A 2-Month Pharmacokinetic Study of Different Sustained-Release Formulations of Tacrolimus after Subcutaneous Administration and Subcutaneous Bioavailability Study of Tacrolimus in Female Göttingen Minipig
Evaluation of the Absolute Bioavailability of Tacrolimus
The dose volume for each animal was 12.5 mL corresponding to a unique dose of 2.5 mg/animal. Solution was administered: • intravenously into the ear vein using 20 mL polypropylene syringe and 23 G butterfly needle. • subcutaneously in a skin fold caudal to the axillar region/shoulder using 20 mL polypropylene syringe and 21 G needle.
Blood samples were collected into EDTA tubes at predose and at different time points: • Intravenous dosing: 5 min (0.083 h), 15 min (0.25 h), 30 min (0.5 h), and 1, 2, 6, 24, 48, 72 and 96 h after end of dosing. • Subcutaneous dosing: 30 min (0.5 h), and 1, 2, 4, 6, 10, 24, 48, 72 and 96 h after end of dosing.
Whole blood samples were analyzed to determine the concentration of the test item using a qualified analytical procedure. 2-Month Pharmacokinetic Study of Sustain-Release Formulations

[1] = Tacrolimus solution 2.5 mg/animal IV
[2] = Tacrolimus solution 2.5 mg/animal SC
[3] = female, Göttingen, minipig, Tacrolimus solution 2.5 mg/animal IV, whole blood
[4] = female, Göttingen, minipig, Tacrolimus solution 2.5 mg/animal SC, whole blood

With C=CC[C@@H]1/C=C(\C)C[C@H](C)C[C@H](OC)[C@H]2O[C@@](O)(C(=O)C(=O)N3CCCC[C@H]3C(=O)OC(/C(C)=C/[C@@H]3CC[C@@H](O)[C@H](OC)C3)[C@H](C)[C@@H](O)CC1=O)[C@H](C)C[C@@H]2OC (stereo partly shown) [Tacrolimus] as the compound, how does the AUClast/D1 [1] read?
Its AUClast/D1 is 17900 ± 1620 kg·ng·h/mL/mg.

And the “AUC∞/D1” value [1]?
Its value is 19700 ± 1750 kg·ng·h/mL/mg.

What about the Clast (Tacrolimus solution 2.5 mg/animal IV, whole blood) of the same compound?
Its Clast is 4.22 ± 2.08 ng/mL.

And the tlast (Tacrolimus solution 2.5 mg/animal IV, whole blood, median (range))?
The tlast was 95.7 (95.7-96.1)^$ h.

And the AUClast/D1 [2]?
Its AUClast/D1 is 17100 ± 1090 kg·ng·h/mL/mg.

What about the “AUC∞/D1” value [2] of the same compound?
Its value is 18100 ± 1150 kg·ng·h/mL/mg.

What about the Cmax/D1 [2] of the same compound?
Its Cmax/D1 is 779 ± 30.8 kg·ng/mL/mg.

And the Cmax/D1 (Tacrolimus solution 2.5 mg/animal SC, listed as immediate release compound)?
Its Cmax/D1 is 779 kg·ng/mL/mg.

And the Clast (Tacrolimus solution 2.5 mg/animal SC, whole blood)?
The Clast was 2.89 ± 0.759 ng/mL.

What about the tlast (Tacrolimus solution 2.5 mg/animal SC, whole blood, median) of the same compound?
The tlast was 96 h.

And the bioavailability (female, Göttingen, minipig, whole blood, subcutaneous, Tacrolimus solution 2.5 mg/animal SC vs IV)?
The bioavailability was 92.4%.

What about the AUC(0-inf) [3] of the same compound?
The AUC(0-inf) was 2040 ± 258 ng·h/mL.

What about the AUC(0-t) [3] of the same compound?
Its AUC(0-t) is 1850 ± 224 ng·h/mL.

And the half-life [3]?
The half-life was 31.5 ± 1.62 h.

What about the AUC(0-inf) [4] of the same compound?
The AUC(0-inf) was 1870 ± 189 ng·h/mL.

What about the AUC(0-t) [4] of the same compound?
Its AUC(0-t) is 1760 ± 169 ng·h/mL.

And the Cmax [4]?
The Cmax was 80.2 ± 2.63 ng/mL.

And the half-life [4]?
Its half-life is 25.7 ± 2.25 h.

What about the Tmax (female, Göttingen, minipig, Tacrolimus solution 2.5 mg/animal SC, whole blood, median) of the same compound?
Its Tmax is 4 h.
